Here are results for 4 compounds from patent EP4775582A1, “MACROCYCLIC COMPOUND AND ANTIBODY-DRUG CONJUGATE THEREOF” (Genfleet Therapeutics (Shanghai) Inc., priority 2023, dated 2025).

One assay deals with AsPC-1 p-ERK. Put plainly: Cell p-ERK assay (HTRF), AsPC-1 cells. It is filed as cell-based, human. The essentials: (§1)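 AsPC-1 (10000/well) or NCI-H441 (20000/well) cells were seeded overnight and then exposed to compound for 3 h at 37 °C. Lysates were probed for ERK phospho-T202/Y204 by HTRF with a 4-hour antibody incubation. IC50 values came from four-parameter fits of inhibition against log concentration.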

The subject of another assay is AsPC-1 cells. The experiment in a line: 3D cell proliferation assay (CellTiter Glo-3D), AsPC-1. It is filed as cell-based, human. A digest of the protocol: (§2)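 Cells seeded at 800 per well (AsPC-1, NCI-H441) in 2% FBS medium and incubated overnight at 37 °C, 5% CO2. Compounds added next day from 10× stock, then 5 days' further culture. Viability read by CellTiter-Glo luminescence; IC50 from four-parameter fit of inhibition versus log concentration.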

In the next assay the target is KRAS WT-cRAF (Homo sapiens, UniProt P01116+P62937). Put plainly: Assay for binding of KRAS to cRAF (HTRF, with Cyclophilin A), KRAS WT.
Chain of KRAS WT-cRAF (P01116 1-188 isoform P01116-2): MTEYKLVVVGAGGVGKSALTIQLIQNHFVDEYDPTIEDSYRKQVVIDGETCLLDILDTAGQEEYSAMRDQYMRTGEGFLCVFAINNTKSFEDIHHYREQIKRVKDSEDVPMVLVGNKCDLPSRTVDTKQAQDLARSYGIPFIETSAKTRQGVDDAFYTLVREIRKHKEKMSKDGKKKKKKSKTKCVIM
Chain of KRAS WT-cRAF (P62937 whole entry): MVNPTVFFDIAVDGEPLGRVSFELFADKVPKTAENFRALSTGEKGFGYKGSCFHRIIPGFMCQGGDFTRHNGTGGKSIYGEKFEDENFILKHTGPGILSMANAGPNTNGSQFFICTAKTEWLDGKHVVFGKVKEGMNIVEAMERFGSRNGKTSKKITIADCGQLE
The subject of the next assay is NCI-H441 cells. The experiment in a line: 3D cell proliferation assay (CellTiter Glo-3D), NCI-H441. The settings on record: NCI-H441 cells (KRAS G12V), 2% FBS, 5 days, read-out: H441 AP IC50. It is filed as cell-based, human. The essentials:
as §2

The target in the next assay is KRAS G12V-cRAF (Homo sapiens, UniProt P01116+P62937, G12V). The experiment in a line: Assay for binding of KRAS to cRAF (HTRF, with Cyclophilin A), KRAS G12V.
Chain of KRAS G12V-cRAF (P01116 1-188 isoform P01116-2 G12V): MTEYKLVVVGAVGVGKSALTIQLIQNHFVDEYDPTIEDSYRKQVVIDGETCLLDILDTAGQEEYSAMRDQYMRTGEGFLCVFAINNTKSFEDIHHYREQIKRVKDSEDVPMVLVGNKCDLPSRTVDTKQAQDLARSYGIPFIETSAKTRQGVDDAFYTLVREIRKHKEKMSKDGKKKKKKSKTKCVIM
Chain of KRAS G12V-cRAF (P62937 whole entry): as the sequence (P62937 whole entry) above
A further assay relates to H441 p-ERK. The experiment in a line: Cell p-ERK assay (HTRF), NCI-H441 cells. It is filed as cell-based, human. The settings on record: NCI-H441 cells (KRAS G12V), 3 h incubation. The essentials: as §1
[1] abbreviates: Homo sapiens, ASPC1, AsPC-1 cells (KRAS G12D), 3 h incubation, read-out: AsPC-1 p-ERK IC50.
Setting [2] is: Homo sapiens, ASPC1, 120 h, AsPC-1 cells (KRAS G12D), 3D, 2% FBS, 5 days, read-out: AsPC-1 AP IC50.
[3] abbreviates: KRAS WT-cRAF binding assay(nM), GPPNP-KRAS WT, IC50 values.
[4] abbreviates: KRAS G12V-cRAF binding assay(nM), GPPNP-KRAS G12V, IC50 values.
[5] abbreviates: read-out: KRAS WT-cRAF binding assay, GPPNP-KRAS WT, IC50 values.
Setting [6] is: read-out: KRAS G12V-cRAF binding assay, GPPNP-KRAS G12V, IC50 values.

Like-named read-outs stand apart in the source and are kept apart here.

Method for KRAS G12V-cRAF: (§3) The plate was centrifuged at 1000 rpm for 1 min and then incubated in the thermostatic incubator at 20 °C for 30 min. […] The plate was centrifuged at 1000 rpm for 1 min and then incubated in the thermostatic incubator at 20 °C for 60 min. […] The working solution was added to the aforementioned assay plate at 5 µL/well. The plate was centrifuged at 1000 rpm for 1 min and then incubated in the thermostatic incubator at 20 °C for 60 min.
Method for KRAS WT-cRAF: as §3

Take `CCn1c(-c2cc(C#CCN3CCS(=O)(=O)CC3)cnc2C(C)O)c2c3cc(ccc31)-c1csc(n1)CC(NC(=O)C1C(C)C1C)C(=O)N1CCCC(N1)C(=O)OCC(C)(C)C2` (atropisomer, axis not shown; (Ra)) [Compound Z60, (1r,2R,3S)-N-((6^3S,4S,Z)-(Ra)-1^2-(5-(3-(1,1-dioxidothiomorpholino)prop-1-yn-1-yl)-2-((S)-1-hydroxyethyl)pyridin-3-yl)-1^1-ethyl-10,10-dimethyl-5,7-dioxo-6^1,6^2,6^3,6^4,6^5,6^6-hexahydro-1^1H-8-oxa-2(4,2)-thiazola-1(5,3)-indola-6(1,3)-pyridazinacycloundecaphane-4-yl)-2,3-dimethylcyclopropane-1-carboxamide]: the IC50 in the assay with AsPC-1 p-ERK (setting [1]) is 0.28 nM; with AsPC-1 cells (setting [2]) it was 0.32 nM; at KRAS WT-cRAF (setting [3]) it was 15.3 nM; in the assay with NCI-H441 cells (Homo sapiens, 120 h), 0.16 nM; on KRAS G12V-cRAF (setting [4]), 15.2 nM; with H441 p-ERK (Homo sapiens) it was 0.15 nM.
Take `CCn1c(-c2cc(C#CCN3CCC(C#N)(CN)CC3)c[n+]([O-])c2[C@H](C)OC)c2c3cc(ccc31)-c1csc(n1)C[C@H](NC(=O)[C@H]1[C@@H]3COC[C@@H]31)C(=O)N1CCC[C@H](N1)C(=O)OCC(C)(C)C2` (atropisomer, axis not shown; (Ra)) [Compound Z64-1, (Ra)-3-((6^3S,4S,Z)-4-((1R,5S,6r)-3-oxabicyclo[3.1.0]hexane-6-carboxamido)-1^1-ethyl-10,10-dimethyl-5,7-dioxo-6^1,6^2,6^3,6^4,6^5,6^6-hexahydro-1^1H-8-oxa-2(4,2)-thiazola-1(5,3)-indola-6(1,3)-pyridazinacycloundecaphane-1^2-yl)-5-(3-(4-(aminomethyl)-4-cyanopiperidin-1-yl)prop-1-yn-1-yl)-2-((S)-1-methoxyethyl)pyridine 1-oxide]: the IC50 in the assay on AsPC-1 p-ERK (AsPC-1 cells (KRAS G12D), 3 h incubation, read-out: AsPC-1 p-ERK IC50) stood at 9.07 nM; in the assay on AsPC-1 cells (AsPC-1 cells (KRAS G12D), 3D, 2% FBS, 5 days, read-out: AsPC-1 AP IC50) it was 3.77 nM; on KRAS WT-cRAF (setting [5]) it was 31.2 nM; with NCI-H441 cells it was 5.1 nM; on KRAS G12V-cRAF (setting [6]) it was 4.1 nM; in the assay on H441 p-ERK, 5.07 nM.
As to `CCn1c(-c2cc(C#CCN3CCS(=O)(=O)CC3)cnc2[C@H](C)OC)c2c3cc(ccc31)-c1csc(n1)[C@@H](N)[C@H](NC(=O)[C@H]1[C@H](C)[C@@H]1C)C(=O)N1CCC[C@H](N1)C(=O)OCC(C)(C)C2` (atropisomer, axis not shown; (Ra)) [Compound Z65, (1r,2R,3S)-N-((6^3S,3S,4S,Z)-3-amino-(Ra)-1^2-(5-(3-(1,1-dioxidothiomorpholino)prop-1-yn-1-yl)-2-((S)-1-methoxyethyl)pyridin-3-yl)-1^1-ethyl-10,10-dimethyl-5,7-dioxo-6^1,6^2,6^3,6^4,6^5,6^6-hexahydro-11H-8-oxa-2(4,2)-thiazola-1(5,3)-indola-6(1,3)-pyridazinacycloundecaphane-4-yl)-2,3-dimethylcyclopropane-1-carboxamide], the IC50 in the assay with AsPC-1 p-ERK (Homo sapiens, ASPC1, 3 h, read-out: AsPC-1 p-ERK IC50(nM)) was determined as 0.06 nM; in the assay with AsPC-1 cells (Homo sapiens, ASPC1, 120 h, read-out: AsPC-1 AP IC50(nM)) it was 0.15 nM; on KRAS WT-cRAF (setting [5]), 22.9 nM; in the assay on NCI-H441 cells (Homo sapiens, 120 h) it was 0.25 nM; on KRAS G12V-cRAF (setting [6]), 5 nM; in the assay on H441 p-ERK (Homo sapiens), 0.14 nM.
In the case of `COCCn1c(-c2cc(C#CCN3CCC(C#N)(CO)CC3)cnc2C(C)OC)c2c3cc(ccc31)-c1csc(n1)CC(NC(=O)C1C(C)C1C)C(=O)N1CCCC(N1)C(=O)OCC(C)(C)C2` [Compound Z29, (1r,2R,3S)-N-((6^3S,4S,Z)-1^2-(5-(3-(4-cyano-4-(hydroxymethyl)piperidin-1-yl)prop-1-yn-1-yl)-2-((S)-1-methoxyethyl)pyridin-3-yl)-1^1-(methoxyethyl)-10,10-dimethyl-5,7-dioxo-6^1,6^2,6^3,6^4,6^5,6^6-hexahydro-1^1H-8-oxa-2(4,2)-thiazola-1(5,3)-indola-6(1,3)-pyridazinacycloundecaphane-4-yl)-2,3-dimethylcyclopropane-1-carboxamide], the IC50 came out at 0.07 nM in the assay on AsPC-1 p-ERK (setting [1]); 0.09 nM with AsPC-1 cells (setting [2]); 37 nM at KRAS WT-cRAF (setting [3]); 0.21 nM in the assay with NCI-H441 cells (Homo sapiens, 120 h); 18.5 nM at KRAS G12V-cRAF (setting [4]); 0.38 nM with H441 p-ERK (Homo sapiens).
